Legend:
[1] = Cytotoxic Concentration needed to produce 50% reduction in the number of viable MT2 cells assayed by metabolism of a tetrazolium dye.; assay type: cell-based; details: human
[2] = Selectivity ratio between EC50 ancd CC50 values of the compound; assay type: functional
[3] = biological target: Human immunodeficiency virus type 1 protease (Human immunodeficiency virus 1, UniProt Q72874); test: Concentration needed to inhibit HIV- protease activity by 50%.
MT2 [4] = test: Concentration needed to inhibit HIV-1 virus replication in MT2 cells by 50% as determined by XTT assay.; assay type: functional, cell-based; details: Homo sapiens
MT2 [5] = test: Concentration needed to inhibit HIV-1 virus replication in MT2 cells by 90% as determined by XTT assay.; assay type: functional; details: Homo sapiens
[6] = Selective ratio between EC50 ancd CC50 values calculated; assay type: functional

Structure (SMILES) | CC50 [1] [nM] | SI [2] | IC50 [3] [nM] | EC50 (MT2 [4]) [nM] | EC90 (MT2 [5]) [nM] | SI [6]
O=S1(=O)[C@H](Cc2ccccc2)[C@H](OCc2ccccc2)[C@H](O)[C@@H](O)[C@@H](OCc2ccccc2)[C@H]1Cc1ccccc1 | 6000 | 150 | 0.6 | 40 | 70 | 
Nc1cccc(CO[C@@H]2[C@H](O)[C@@H](O)[C@@H](OCc3cccc(N)c3)[C@@H](Cc3ccccc3)S(=O)(=O)[C@@H]2Cc2ccccc2)c1 | 30000 |  | 1 | 9 |  | 3330
O=S1(=O)[C@H](Cc2ccccc2)[C@H](OCc2cncs2)[C@H](O)[C@@H](O)[C@@H](OCc2cncs2)[C@H]1Cc1ccccc1 | 40000 | 6150 | 0.3 | 6.5 | 40 | 

— ChEMBL document CHEMBL1129619, “New series of potent, orally bioavailable, non-peptidic cyclic sulfones as HIV-1 protease inhibitors” (J Med Chem, 1996)
